How the values were obtained:
RAW264.7 macrophages [1] = assay: Quantitative real-time PCR of inflammatory mediators and cytokines; assay type: cell-based, mouse; details: LPS-induced
Procedure: RNA was isolated from cells using TRIzol reagent (Invitrogen, Carlsbad, CA, USA) as previously described.^32 The concentration of the isolated RNA was measured using an Epoch microplate spectrophotometer (BioTek, Winooski, VT, USA). One microgram of RNA was reverse-transcribed to cDNA with random primers and an MMLV RT kit (Epicenter Biotechnologies, Madison, WI, USA). The mixture (2 μl) was added to PCR reagents to measure the target mRNA level with specific primers (Table 1). All real-time PCRs were performed in a volume of 20 μl containing 10 μl of Real-time PCR SYBR Green master mix (Toyobo, Osaka, Japan) using a PikoReal 96 Real-Time PCR System (Thermo Fisher Scientific Inc.), according to our previously described method.^33 The expression of β-actin was used as an internal control for RNA quantification.

RAW264.7 macrophages [2] = assay: Morphology of LPS-stimulated macrophages; assay type: cell-based, mouse; details: LPS 24 hours; FIG. 1C
Procedure: To compare the anti-inflammatory effects of the newly synthesized compound FJU-C28 (FIG. 1A) on LPS-activated murine macrophages to those of the parent compound FJU-C4, RAW264.7 macrophages were pretreated with various concentrations of FJU-Cs for 30 min and then stimulated with or without LPS for 24 hours. […] LPS stimulation changed the shape of macrophages, resulting in dendritic-like cells with multiple vacuoles in the cytoplasm, whereas the untreated cells were round and small. […] This effect was consistent with the findings of the cytotoxicity assay. […] In addition, FJU-C28 suppressed the expression of iNOS and COX2 at doses higher than 5 μM (FIG. 1D).

[3] = tested on: C57BL/6 mice with LPS-induced systemic inflammation; assay: Serum cytokines by ELISA in mice with LPS-induced systemic inflammation; assay type: in vivo, mouse; details: FJU-C28 5 mg/kg, LPS 7.5 mg/kg; FIG. 12B
Procedure: RANTES (RayBiotech), IL-1β and IL-6 (eBioscience, San Diego, CA, USA) concentrations in cell culture media and mouse serum were measured using ELISA kits according to the manufacturer's instructions. The plates were measured at […] using an Epoch microplate spectrophotometer (BioTek Instruments, Winooski, VT, USA). The concentrations of RANTES, IL-1β and IL-6 in the samples were determined by standard curves.
Ten-week-old male C57BL/6 mice from BioLasco Taiwan Co., Ltd. (Taipei, Taiwan) were used in the present study. […] The detailed procedure was performed as described in a previous study.^34 The lung function values, including C chord (lung compliance), IC (inspiratory capacity), VC (vital capacity), FEV100 (forced expiratory volume at 100 ms) and FVC (forced vital capacity), were measured using a Buxco Research System. […]
To evaluate the protective effect of FJU-C28 on lung function in mice with systemic inflammation induced by endotoxin, male C57BL/6 mice were administered LPS (7.5 mg/kg) and treated with/without FJU-C28 (5 mg/kg) for 24 hours; subsequently, lung function parameters were measured using a Buxco pulmonary function test system. […] To ascertain the correlation between target cytokines and lung injury, serum cytokines were measured by ELISA.

[4] = concentration less than 10 μM, FIG. 2

C=CCC1CC(Sc2ccccc2)=CC(=O)N1C(=O)C=C (stereo not drawn) [FJU-C28]
mRNA level of COX2 (RAW264.7 macrophages [1]; FIG. 2): downregulated in a concentration-dependent manner
mRNA level of iNOS (RAW264.7 macrophages [1]; FIG. 2): downregulated in a concentration-dependent manner
mRNA level of IL-1β (RAW264.7 macrophages [1]; [4]): concentration-dependently decreased
mRNA level of IL-6 (RAW264.7 macrophages [1]; [4]): concentration-dependently decreased
gene expression of IL-6 (RAW264.7 macrophages [1]; dose higher than 5 μM): noticeably inhibited
gene expression of iNOS (RAW264.7 macrophages [1]; dose higher than 5 μM): noticeably inhibited
LPS-induced changes in macrophage morphology (RAW264.7 macrophages [2]): dramatically inhibited these changes in morphology in a concentration-dependent manner
circulating (serum) level of IL-6 [3]: significantly suppressed
circulating (serum) level of RANTES [3]: significantly suppressed

From US20250041282A1, “METHOD FOR TREATING INFLAMMATORY PULMONARY DISEASE” (FU JEN CATHOLIC UNIVERSITY, priority 2021, published 2025)
